Entries after “also recorded” stand apart in the source; their conditions may differ.
How the values were obtained:
Kupffer cells [1] = assay: Gadolinium chloride treatment after partial hepatectomy (PHx) in Casp8F/-:Alb-Cre mice; type: in vivo; details: 1/3 PHx, 10 mg/kg i.p. on days 10 and 12 after PHx
Procedure: (iii) Partial Hepatectomy and Gadolinium Chloride Administration. Age-matched Casp8^F/−: Alb-Cre mice and Casp8^F/+: Alb-Cre mice were lightly anesthetized with intraperitoneally (i.p.) administered xylazine […] (Chanelle Pharmaceuticals Manufacturing, Loughrea, Galway, Ireland) and ketamine […] (Fort Dodge Animal Health, Fort Dodge, Iowa). It was performed ‘one-third’ (30%) PHx by excising the median lobe of the liver, and ‘two-thirds’ (70%) PHx by excising the median, left, and right upper lobes as described (Higgins et al., 1931 and Greene et al., 2003). Mice were imaged before PHx and afterwards on days 0-56 (every other day during the first week and weekly from then on). On days 10 and 12 after PHx the mice were injected i.p. with gadolinium chloride (Sigma-Aldrich, St. Louis, Mo.) in saline at a dosage of 10 mg/kg.
(iv) MRI Analysis Technique. Magnetic resonance imaging (MRI) experiments were performed using a horizontal 4.7 T Biospec spectrometer (Bruker Medical, Ettlingen, Germany) with a 4.2-cm birdcage coil. Mice were anesthetized (with pentobarbital 30 mg/kg, i.p.) and placed supine with the liver located at the center of the coil. Liver volume was determined from multi-slice coronal and axial T1-weighted spin echo images (repetition time=400 ms; echo time=18 ms; slice thickness=1 mm). In brief, the liver boundary visualized in each slice was outlined using image-processing software (NIH Image). […] The total liver volume was calculated as the summed area of all slices, multiplied by the slice thickness. For each mouse the liver volume was expressed as a percentage of the preoperative liver volume. […]
Cells expressing F4/80 were detected similarly, using rat anti-mouse F4/80 antibody (Serotec Oxford, UK), except that for antigen retrieval the paraffin sections were treated for 3 minutes at room temperature with a solution containing 20 mM Tris (pH 7.5), 0.1% trypsin, and 0.1% calcium chloride. The macrophage content of the livers was determined by quantifying the F4/80 positive areas in the slides using the ImageJ 1.37r software.

Kupffer cells [2] = details: stated as a known fact, no experiment of the patent described; cited from earlier work

[Cl][Gd]([Cl])[Cl] [gadolinium chloride]
late (delayed) hepatocyte proliferation, anti-Ki67 stained nuclei in 10 high-power fields (Kupffer cells [1]; 14th day after PHx, 10 mg/kg): practically wiped out the increase in hepatocyte proliferation; also recorded: arrest of the delayed hepatocyte proliferation
liver volume / excessive increase in liver size (hepatomegaly), MRI scans (Kupffer cells [1]; 14th day after PHx, 10 mg/kg): curtailed; also recorded: prevention of hepatomegaly
inflammatory cells (macrophages, anti-F4/80 staining) accumulated in the liver (Kupffer cells [1]; liver examined 14 days after PHx): substantially decreasing the inflammatory cells that had accumulated
hepatocyte proliferation facilitated early after PHx (Kupffer cells [2]): does not decrease, but rather is enhanced

From patent US8304384B2, “Caspase-8 and inflammation, infection and wound healing” (Yeda Research and Development Co., Ltd, priority 2006, dated 2012)
